From patent publication US4649150A, “Antiulcerogenic amidine derivatives of 2-substituted 4-phenylimidazole” (Istituto de Angeli, S.p.A., priority 1983, dated 1987)
Read-outs that look alike come from different tables or passages of the source.

Key:
histamine H2 -receptors = target: T1, histamine H2 -receptors (Cavia porcellus, UniProt P47747); experiment: In vitro inhibitory activity in histamine-induced tachycardia (guinea pig atria); inhibition of the histamine-evoked positive chronotropic effect; conditions: isolated guinea pig atria, Krebs-Henseleit pH 7.4, 32° C., histamine 10^-6 g.ml^-1, 30 minutes; read-out: EC50 (average effective concentration of the H2-antagonists, inhibition of histamine-induced tachycardia)
T1 construct: isolated guinea pig atria suspended in an organ bath; from tissue; host or cells: isolated guinea pig atria
T1 sequence (P47747 whole entry): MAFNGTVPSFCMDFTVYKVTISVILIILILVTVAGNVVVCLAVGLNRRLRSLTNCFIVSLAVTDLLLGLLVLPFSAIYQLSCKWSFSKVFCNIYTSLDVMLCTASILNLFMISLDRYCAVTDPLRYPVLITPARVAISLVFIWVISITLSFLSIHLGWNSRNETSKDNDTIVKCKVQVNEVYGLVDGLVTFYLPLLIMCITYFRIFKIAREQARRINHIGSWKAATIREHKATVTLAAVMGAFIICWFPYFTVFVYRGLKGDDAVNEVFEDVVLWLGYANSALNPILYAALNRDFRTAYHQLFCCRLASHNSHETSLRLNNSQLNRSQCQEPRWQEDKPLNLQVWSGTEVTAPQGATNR
Experimental: The myocardial preparation, loaded with 1 g isometric tension, was allowed to stabilize for 60 minutes, and myocardial contractions were recorded through an isometric lever connected to a strain-gauge coupler, and the instantaneous rate was monitored with a cardiotachometer and a heat-writing pen recorder. After two control responses to histamine (10^-6 g.ml^-1) the test compounds were added to the bath at the desired final concentration and left for 30 minutes before the atria were again challenged with histamine. The chronotropic response obtained in the presence of the antagonist was then compared to the control response to histamine, and the percent reduction of the histamine H2 -evoked response was calculated. […] 3, Smooth muscle, Ed. Daniel E. E. Paton, M., Plenum Press. New York (1975); Ash and Schild, Br. J. Pharmacol. Chemother. 27, 427-439, 1966.

[1] = system: histamine-induced gastric secretion of acid; experiment: In vivo antisecretory activity in histamine-induced gastric secretion (stomach perfused rat); conditions: iv, read-out: ED50 (histamine-induced gastric secretion)
Source text: The ability of the test compounds to inhibit histamine-induced gastric secretion of acid was investigated after intravenous or intraduodenal administration in stomach perfused rats, according to Gosh and Schild [Br. J. Pharmacol. Chemother. 13, 54 (1958)]. The preparation of the animals in general anesthesia (urethane 1 g.kg^-1 i.p.) and constant temperature was achieved by inserting and tying in place polyethyl tubes (PE 50) in the esophagus and in the pyloric-antral region. After the stomach was washed to remove residuals of food, continuous perfusion of the stomach was started with saline, 0.5 ml.min^-1 (37° C.), primed by a Jobling peristaltic pump. After 30 minutes of perfusion adaptation, samples of the stomach perfusate were collected at 30 min. intervals and titrated for acid content, expressed as μEq of 1N NaOH. As control acid output became constant, intravenous perfusion of histamine (1 mg.kg^-1hr^-1) was started and maintained throughout the experimental period. After the acid secretion had reached the steadily higher level, increasing doses of the test compound were injected intravenously in order to obtain dose-response functions. The ED50 was then calculated by standard procedure.

[2] = stomach perfused rat, urethane anesthesia, histamine 1 mg.kg^-1hr^-1 i.v., values expressed taking the compound as a base

EC50 (histamine H2 -receptors) | SMILES | ED50 [1, 2] | ED50 ([1]; Rattus norvegicus)
0.12 µM | C=CCNC=Nc1ccc(-c2c[nH]c(C)n2)cc1 [16 (c), N-Allyl-N'-[4-(2-methyl-imidazol-4-yl)phenyl]-formamidine] | 0.025 mg/kg | 
0.4 µM | Cc1nc(-c2ccc(N=CNC(C)(C)C)cc2)c[nH]1 [Example 17, N-tert.Butyl-N'-[4-(2-methyl-imidazol-4-yl)phenyl]-formamidine] | 0.08 mg/kg | 

The next lines start with the compound.

SMILES | EC50 (histamine H2 -receptors) | ED50 [1, 2] | ED50 ([1]; Rattus norvegicus)
CCNC=Nc1ccc(-c2c[nH]c(C)n2)cc1 [16 (a), N-Ethyl-N'-[4-(2-methyl-imidazol-4-yl)phenyl]-formamidine] | 0.15 µM | 0.032 mg/kg | 
CC(C)NC=Nc1ccc(-c2c[nH]c(O)n2)cc1 [16 (aa), N-Isopropyl-N'-[4-(2-hydroxy-imidazol-4-yl)phenyl]-formamidine] | 0.194 µM | 0.065 mg/kg | 
Cc1nc(-c2ccc(N=CNC(C)C)cc2)c[nH]1 [16 (b), N-Isopropyl-N'-[4-(2-methyl-imidazol-4-yl)phenyl]-formamidine] | 0.18 µM | 0.067 mg/kg | 
CN/C(=N/CCSCc1nc[nH]c1C)NC#N [Cimetidine, reference compound] |  |  | 0.56 mg/kg
